Results: US8404713B2, “Quinolinone derivatives as PARP inhibitors” (Janssen Pharmaceutica NV, priority 2007, dated 2013)
Structures can show the parent of a compound that is named as a salt.

Tests used:
[1] = molecular target: T1, Human PARP-1 enzyme (Homo sapiens, UniProt P09874); experiment: In vitro scintillation proximity assay (SPA) for PARP-1 inhibitory activity; format: biochemical; settings: nicked DNA activated PARP-1, [3H]-NAD+, biotinylated histones; tested between 10^-5 M and 3x10^-9 M; read-out: in vitro SPA assay PARP-1 pIC50 (converted)
T1 construct: purchased Trevigen
T1 sequence (P09874 whole entry): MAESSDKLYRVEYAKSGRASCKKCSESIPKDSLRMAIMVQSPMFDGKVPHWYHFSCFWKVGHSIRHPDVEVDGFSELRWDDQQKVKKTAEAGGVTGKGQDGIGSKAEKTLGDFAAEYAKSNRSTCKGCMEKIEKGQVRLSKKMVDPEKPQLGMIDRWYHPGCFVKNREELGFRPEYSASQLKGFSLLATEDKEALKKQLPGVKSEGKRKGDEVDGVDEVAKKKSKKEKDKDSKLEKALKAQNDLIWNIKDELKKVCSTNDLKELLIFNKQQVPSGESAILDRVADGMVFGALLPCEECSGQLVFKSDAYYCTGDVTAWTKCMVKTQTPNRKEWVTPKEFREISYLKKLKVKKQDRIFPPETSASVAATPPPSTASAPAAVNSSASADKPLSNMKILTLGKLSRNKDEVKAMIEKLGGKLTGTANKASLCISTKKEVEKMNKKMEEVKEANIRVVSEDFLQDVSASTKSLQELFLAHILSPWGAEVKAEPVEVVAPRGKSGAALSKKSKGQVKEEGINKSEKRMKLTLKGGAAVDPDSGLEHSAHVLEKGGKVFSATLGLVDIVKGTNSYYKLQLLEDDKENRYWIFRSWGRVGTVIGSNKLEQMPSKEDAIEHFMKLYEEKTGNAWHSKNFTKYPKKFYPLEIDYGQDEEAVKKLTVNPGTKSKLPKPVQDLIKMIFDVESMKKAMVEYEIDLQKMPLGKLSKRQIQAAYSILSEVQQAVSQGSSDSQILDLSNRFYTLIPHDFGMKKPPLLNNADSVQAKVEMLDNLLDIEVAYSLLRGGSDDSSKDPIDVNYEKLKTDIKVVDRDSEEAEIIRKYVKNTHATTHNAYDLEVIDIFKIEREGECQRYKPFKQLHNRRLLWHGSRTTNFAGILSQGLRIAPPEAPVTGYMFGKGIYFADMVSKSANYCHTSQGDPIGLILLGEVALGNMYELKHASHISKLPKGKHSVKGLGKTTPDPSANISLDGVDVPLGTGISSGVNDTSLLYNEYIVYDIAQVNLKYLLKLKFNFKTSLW
Description: C.1. In Vitro Scintillation Proximity Assay (SPA) for PARP-1 Inhibitory Activity
Compounds of the present invention were tested in an in vitro assay based on SPA technology (proprietary to GE healthcare).
In principle, the assay relies upon the well established SPA technology for the detection of poly(ADP-ribosyl)ation of biotinylated target proteins, i.e histones. This ribosylation is induced using nicked DNA activated PARP-1 enzyme and [^3H]-nicotinamide adenine dinucleotide ([^3H]-NAD^+) as ADP-ribosyl donor.
Histones (type II-A, supplier: Sigma) were biotinylated using the biotinylation kit of Amersham and stored aliquoted at −20° C. A stock solution of 100 mg/ml SPA poly(vinyl toluene) (PVT) beads (supplier: Amersham) was made in PBS. A stock solution of 61.6 nM [^3H]-NAD^+ was made by adding [^3H]-NAD^+ (0.1 mCi/ml, supplier: Perkin Elmer) to incubation buffer (50 mM Tris/HCl, pH 8; 0.2 mM DTT; 4 mM MgCl2). A solution of 4 mM NAD^+ (supplier: Sigma) was made. Human PARP-1 enzyme was obtained from Trevigen. Biotinylated histones and PVT-SPA beads were mixed and pre-incubated for 30 min. at room temperature. PARP-1 enzyme (concentration was lot dependent) was mixed with the nicked DNA and the mixture was pre-incubated for 30 min. at 4° C. Equal parts of this histones/PVT-SPA beads solution and PARP-1 enzyme/DNA solution were mixed and 75 μl of this mixture together with 1 μl of compound in DMSO and 25 μl of [^3H]-NAD^+ was added per well into a 96-well microtiterplate. The final concentrations in the incubation mixture were 2 μg/ml for the biotinylated histones, 2 mg/ml for the PVT-SPA beads, 0.25 μg/ml for the nicked DNA and between 0.1-0.2 μg/ml for the PARP-1 enzyme. After incubation of the mixture for 20 min. at room temperature, the reaction was terminated by adding 100 μl of 4 mM NAD^+ in water (final concentration 2 mM) and plates were mixed. The beads were sedimented by centrifugation (10 min, 800 rpm). and plates transferred to a TopCountNXT™ (Packard) for scintillation counting, values were expressed as counts per minute (cpm). For each experiment, controls (containing PARP-1 enzyme and DMSO without compound), a blank incubation (containing DMSO but no PARP-1 enzyme, no DNA or compound) and samples (containing PARP-1 enzyme, DNA and compound dissolved in DMSO) were run in parallel. All compounds tested were dissolved and eventually further diluted in DMSO. A dose-response curve was made wherein the compounds were tested at concentrations between 10^−5M and 3×10^−9M. In each test, the blank value was subtracted from both the control and the sample values. The control sample represented maximal PARP-1 enzyme activity. For each sample, the amount of cpm was expressed as a percentage of the mean cpm value of the controls. When appropriate, IC50-values (concentration of the drug, needed to reduce the PARP-1 enzyme activity to 50% of the control) were computed using linear interpolation between the experimental points just above and below the 50% level. Herein the effects of test compounds are expressed as pIC50 (the negative log value of the IC50-value). As a reference compound, 4-amino-1,8-naphthalimide was included to validate the SPA assay.

[2] = molecular target: T2, TANK-2 enzyme (Homo sapiens, UniProt Q9H2K2); experiment: In vitro scintillation proximity assay (SPA) for TANK-2 inhibitory activity; format: biochemical; settings: auto-poly(ADP-ribosyl)ation, Ni flash plates; 96-well results if available, otherwise 384-well; tested between 10^-5 M and 3x10^-8 M; read-out: in vitro SPA assay TANK-2 pIC50 (converted)
T2 construct: made in house
T2 sequence (Q9H2K2 1-1166): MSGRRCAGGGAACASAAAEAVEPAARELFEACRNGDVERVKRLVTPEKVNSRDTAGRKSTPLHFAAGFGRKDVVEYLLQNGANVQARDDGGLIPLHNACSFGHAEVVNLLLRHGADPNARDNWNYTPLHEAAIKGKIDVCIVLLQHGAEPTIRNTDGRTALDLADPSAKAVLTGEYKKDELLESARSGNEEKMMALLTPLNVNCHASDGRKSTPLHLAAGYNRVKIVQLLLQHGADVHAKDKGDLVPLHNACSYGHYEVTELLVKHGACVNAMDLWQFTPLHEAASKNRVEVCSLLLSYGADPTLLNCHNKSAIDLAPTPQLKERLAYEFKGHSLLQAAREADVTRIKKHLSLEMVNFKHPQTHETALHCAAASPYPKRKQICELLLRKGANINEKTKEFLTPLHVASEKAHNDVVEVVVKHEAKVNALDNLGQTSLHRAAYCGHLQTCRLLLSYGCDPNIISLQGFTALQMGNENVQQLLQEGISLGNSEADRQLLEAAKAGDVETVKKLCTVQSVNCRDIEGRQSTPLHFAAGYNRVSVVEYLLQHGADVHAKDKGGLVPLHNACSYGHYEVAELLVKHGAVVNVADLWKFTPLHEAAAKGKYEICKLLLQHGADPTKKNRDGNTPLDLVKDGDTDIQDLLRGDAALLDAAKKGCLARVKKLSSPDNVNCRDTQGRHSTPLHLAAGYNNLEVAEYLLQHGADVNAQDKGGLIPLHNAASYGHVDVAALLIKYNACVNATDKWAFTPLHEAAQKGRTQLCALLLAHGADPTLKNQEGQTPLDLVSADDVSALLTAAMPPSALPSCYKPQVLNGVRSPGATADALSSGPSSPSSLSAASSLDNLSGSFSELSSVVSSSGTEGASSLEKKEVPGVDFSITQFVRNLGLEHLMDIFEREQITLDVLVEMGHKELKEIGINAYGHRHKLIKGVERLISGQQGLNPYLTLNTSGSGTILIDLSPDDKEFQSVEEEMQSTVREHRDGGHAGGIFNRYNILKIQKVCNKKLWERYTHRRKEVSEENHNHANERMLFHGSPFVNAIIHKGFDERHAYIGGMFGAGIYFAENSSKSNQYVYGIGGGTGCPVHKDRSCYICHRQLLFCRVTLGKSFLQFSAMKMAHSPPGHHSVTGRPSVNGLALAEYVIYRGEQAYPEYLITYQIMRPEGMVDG
Description: C.2. In Vitro Scintillation Proximity Assay (SPA) for TANK-2 Inhibitory Activity
Compounds of the present invention were tested in an in vitro assay based on SPA technology with Ni Flash plates (96 or 384 well).
In principle, the assay relies upon SPA technology for the detection of auto-poly(ADP-ribosyl)ation of TANK-2 protein using [^3H]-nicotinamide adenine dinucleotide ([^3H]-NAD^+) as ADP-ribosyl donor.
A stock solution of 100 nM [^3H]-NAD^+/NAD (0.1 mCi/ml, supplier: Perkin Elmer) and 0.25 mM NAD (Sigma) was made in assay buffer (60 mM Tris/HCl, pH 7.4; 0.9 mM DTT; 6 mM MgCl2). The TANK-2 enzyme was produced as described in EP1238063. 60 μl of assay buffer, together with 1 μl of compound in DMSO, 20 μl of [^3H]-NAD^+/NAD and 20 μl of TANK-2 enzyme (final concentration 8 μg/ml) was added per well into a 96-well Ni-coated flash plate (Perkin Elmer). After incubation of the mixture for 120 min. at room temperature, the reaction was terminated by adding 60 μl of stopsolution (42.6 mg NAD in 6 ml H2O). The plates were covered with a plate sealer and placed in a TopCountNX™ (Packard) for scintillation counting. Values were expressed as counts per minute (cpm). For each experiment, controls (containing TANK-2 enzyme and DMSO without compound), a blank incubation (containing DMSO but no TANK-2 enzyme or compound) and samples (containing TANK-2 enzyme and compound dissolved in DMSO) were run in parallel. All compounds tested were dissolved and eventually further diluted in DMSO. […] In each test, the blank value was subtracted from both the control and the sample values. The control sample represented maximal TANK-2 enzyme activity. For each sample, the amount of cpm was expressed as a percentage of the mean cpm value of the controls. When appropriate, IC50-values (concentration of the drug, needed to reduce the TANK-2 enzyme activity to 50% of the control) were computed using linear interpolation between the experimental points just above and below the 50% level. Herein the effects of test compounds are expressed as pIC50 (the negative log value of the IC50-value). As reference compounds, 3-aminobenzamide and 4-amino-1,8-naphtalimide were included to validate the SPA assay. Herein the assay was described using 96-well plates. In the assay using 384-well plates the same final concentrations were used and volumes were adapted.

| SMILES | melting point [°C] | IC50 [1] [nM] | IC50 [2] [nM] |
| --- | --- | --- | --- |
| CCc1cc2ccc(CCCN3CCN(c4ccc(C#N)cn4)CC3)cc2[nH]c1=O (as salt: HCl) [Compound 8] | 174 |  |  |
| CCc1cc2ccc(CNCCc3c[nH]c4ccccc34)cc2[nH]c1=O [Compound 1] | 155 | 13.4 | 1440 |
| CCc1cc2ccc(CN3CCN(c4ccccn4)CC3)cc2[nH]c1=O [Compound 2] | 252 | 0.605 | 687 |
| CCc1cc2ccc(CN3CCC(c4ccccc4)CC3)cc2[nH]c1=O [Compound 3] | 184 | 1.24 | 5450 |
| CCc1cc2ccc(CNCc3ccc(F)cc3)cc2[nH]c1=O [Compound 48] |  | 24.4 | 254 |
| CCc1cc2ccc(CNCc3ccccc3)cc2[nH]c1=O [Compound 49] |  | 42.9 | 155 |
| Cc1cc2ccc(C(C)N3CCC(c4ccc(Cl)cc4)CC3)cc2[nH]c1=O (centres unmarked) [Compound 50] |  | 1.5 | 2800 |
| Cc1cc2ccc(C(C)N3CC=C(c4ccccc4)CC3)cc2[nH]c1=O (centres unmarked) [Compound 51] |  | 1.49 | 1280 |
| Cc1cc2ccc(C(C)N3CCN(c4ccc(F)cc4F)CC3)cc2[nH]c1=O (centres unmarked) [Compound 52] |  | 1.42 | 2420 |
| Cc1cc2ccc(C(C)N3CCCCC3)cc2[nH]c1=O (centres unmarked) [Compound 53] |  | 49.8 | > 10000 |
| Cc1cc2ccc(C(C)N3CCN(C4CCCCC4)CC3)cc2[nH]c1=O (centres unmarked) [Compound 54] |  | 61.4 | > 10000 |
| COCCNC1CCN(C(C)c2ccc3cc(C)c(=O)[nH]c3c2)CC1 (centres unmarked) [Compound 55] |  | 92 | > 10000 |
| Cc1cc2ccc(C(C)N3CCN(c4ncccc4C(F)(F)F)CC3)cc2[nH]c1=O (centres unmarked) [Compound 56] |  | 225 | 1920 |
| Cc1cc2ccc(CN3CCN(c4ccccn4)CC3)cc2[nH]c1=O [Compound 57] |  | 1.48 | 4220 |
| Cc1cc2ccc(C(C)N3CCN(c4cccc(Cl)c4)CC3)cc2[nH]c1=O (centres unmarked) [Compound 58] |  | 95.9 | 2320 |
| Cc1cc2ccc(C(=O)N3CC=C(c4ccccc4)CC3)cc2[nH]c1=O [Compound 59] |  | 129 | 818 |
| Cc1cc2ccc(C(=O)N3CCN(c4ccccc4Cl)CC3)cc2[nH]c1=O [Compound 60] |  | 116 | > 10000 |
| CCc1cc2ccc(CN3CCCC3)cc2[nH]c1=O [Compound 61] |  | 5.36 | 4220 |
| CCc1cc2ccc(CN3CCN(c4ncc(C(=O)NCCO)cn4)CC3)cc2[nH]c1=O [Compound 62] |  | 8.95 | 33 |
| CCc1cc2ccc(CN3Cc4ccccc4C3)cc2[nH]c1=O [Compound 63] |  | 39.2 | 455 |
| Cc1cc2ccc(C(C3CCCCC3)N3CCC(c4ccccc4)CC3)cc2[nH]c1=O (centres unmarked) [Compound 65] |  | 4070 | > 10000 |
| Cc1cc2ccc(C(C(C)C)N3CCN(c4ccc(C#N)cn4)CC3)cc2[nH]c1=O (centres unmarked) [Compound 66] |  | 195 | 1230 |
| Cc1cc2ccc(C(C3CCCCC3)N3CCN(c4ccccc4C#N)CC3)cc2[nH]c1=O (centres unmarked) [Compound 67] |  | 708 | > 10000 |
| Cc1cc2ccc(C(C3CCCCC3)N3CCN(c4ccc(C#N)cn4)CC3)cc2[nH]c1=O (centres unmarked) [Compound 70] |  | 275 | 1910 |
| CCc1cc2c(OC)cc(CN3CCN(c4ccccc4Cl)CC3)cc2[nH]c1=O [Compound 71] |  | 4.27 | 1780 |
| COc1ccccc1N1CCN(C(c2ccc3cc(C)c(=O)[nH]c3c2)C2CCCCC2)CC1 (centres unmarked) [Compound 72] |  | ≥ 10000 | 933 |
| Cc1cc2ccc(C(C3CCCCC3)N3CC=C(c4ccccc4)CC3)cc2[nH]c1=O (centres unmarked) [Compound 73] |  | 1290 | 646 |
| Cc1cc2ccc(C(C)N3CCC(c4ccccc4)CC3)cc2[nH]c1=O (centres unmarked) [Compound 74] |  | 6.46 | 1860 |
| Cc1cc2ccc(C(C3CCCCC3)N3CCN(c4ccccn4)CC3)cc2[nH]c1=O (centres unmarked) [Compound 75] |  | 309 | > 10000 |
| Cc1cc2ccc(C(C)N3CCN(c4ccccc4Cl)CC3)cc2[nH]c1=O (centres unmarked) [Compound 76] |  | 0.646 | 1550 |
